Key:
[1] = Oral bioavailability in rat 1 mg/kg; assay type: ADME, organism-based; settings: in vivo
Liver microsomes = assay: Intrinsic clearance in human liver microsomes; assay type: ADME, Microsome
[2] = Half life in rat at 0.5 mg/kg, iv and 1 mg/kg, po; assay type: ADME, organism-based; settings: in vivo
[3] = Volume of distribution at steady state in rat at 0.5 mg/kg, iv and 1 mg/kg, po; assay type: ADME, organism-based; settings: in vivo, read-out: Vdss
[4] = Clearance in rat blood at 0.5 mg/kg, iv and 1 mg/kg, po; assay type: ADME, organism-based; settings: whole blood
[5] = Ratio of drug level in rat brain to plasma at 0.5 mg/kg, iv and 1 mg/kg, po; assay type: ADME, organism-based

SMILES	bioavailability [1] [%]	CL (Liver microsomes) [mL/min/g]	half-life [2] [h]	Vd [3] [L/kg]	clearance [4] [mL/min/kg]	Kp [5]
Cc1ccc2c(N3CCN(CCc4cccc5c4OCC(=O)N5C)CC3)cc(F)cc2n1	41	3.2	1.4	2.1	21	1.1
Cc1ccc2c(N3CCN(CCCc4cccc5c4OCC(=O)N5C)CC3)cccc2n1		2.1	1.5	5.2	55	2.9
Cc1ccc2c(N3CCN(CCc4cccc5c4OCC(=O)N5C)[C@@H](C)C3)cccc2n1	31	3.5	0.8	1.9	44	1.9
Cc1ccc2c(N3CCN(CCc4ccc5c(c4)N(C)C(=O)CO5)CC3)cccc2n1		1.1		2.7		

Results, then the compound that gave them:

bioavailability [1] [%]	CL (Liver microsomes) [mL/min/g]	half-life [2] [h]	Vd [3] [L/kg]	clearance [4] [mL/min/kg]	Kp [5]	SMILES
26	2.4	1	1.7	29		Cc1ccc2c(N3CCN(CCc4cccc5c4OCC(=O)N5C)CC3)cccc2n1
	< 0.5		2			Cc1ccc2c(N3CCN(CCc4ccc5c(c4)NC(=O)CO5)CC3)cccc2n1
63	1	5.2	3.4	8		Cc1ccc2c(N3CCN(CCc4cccc5c4OCC(=O)N5)CC3)cccc2n1
